Results from patent US9186361B2, “Compounds and compositions for the treatment of parasitic diseases” (Novartis AG, priority 2013, dated 2015).

Assays:
[1] = system: L. donovani HU3 strain in mouse peritoneal macrophages; test: Proliferation of L. donovani in mouse peritoneal macrophages (SybrGreen, high-content imaging); format: cell-based; details: Leishmania donovani, Peritoneal macrophage, 120 h; infected mouse peritoneal macrophages, 5 days; read-out: L. donavani Macrophage EC50
Source text: The activity of a compound according to the present invention for inhibition of parasitemai can be assessed by the parasite proliferation assay. The assay measures the increase in the parasite number in the assayed plate well using a DNA intercalating dye, SYBR Green I® dye (INVITROGEN) to stain Leishmania cell nuclei. It is understood that the assays illustrate the invention without in any way limiting the scope of the invention.
L. donovani HU3 strain is propagated by infecting BALBc mice through tail vein injection with 10^7 Leishmania parasites. Infected mice are allowed to develop infection during 9-11 weeks post-infection. During this time, the parasites accumulate in the infected mouse spleens to large numbers, and the infected mice serve as the source of parasites for the in vitro measurement of compound efficacies. To assay a compound for anti-leishmanial activity, peritoneal macrophages isolated from non-infected BALBc mice are seeded into 384-well plates at density 2×10^4 macrophages per well in 25 mL of medium (RPMI1640, 10% fetal serum albumin, 10 mM HEPES, 1 mM sodium pyruvate, 1% Pen/Strep). Subsequently, the seeded plates are placed into an incubator set to maintain 37° C. temperature and atmosphere with 5% CO2. The next day, Leishmania parasites are isolated from the spleens of mice infected for 9-11 weeks and 4×10^5 isolated parasites in […] of the above media are added to each plate well. Plates are then returned into incubators and infection is allowed to proceed for 24 hours. After the infection of macrophages is completed, […] of compounds of the invention in the above medium, which also contains 5% DMSO, are added to plate wells containing infected macrophages. At the same time control compounds (miltefosine and amphotericin B) and DMSO are added to plates to serve as the positive and negative controls, respectively. After the compound addition, the plates are returned into incubator and cells infected with parasites are cultured for 5 days. At the end of cultivation, […] of 8% paraformaldehyde is added to plate wells and incubated for 15 min at room temperature. Following the incubation, the paraformaldehyde from plate wells is aspirated, and […] of PBS containing 0.2% Triton X-100 is added to wells. After 15 min incubation, the solution is aspirated from wells again, and replaced with SybrGreen Dye solution in PBS (1:125,000 dilution). Infected cells are imaged with Evotec Opera high-content microscope, and the number of parasites in well is determined by counting parasite nuclei visualized by staining with SybrGreen dye. The percentage inhibition of 50%, EC50, is calculated for each compound.
The inhibitory efficacy of the compounds of the invention against proliferation of L. donovani in mouse peritoneal macrophages is provided in Table I.

[2] = system: Leishmania donovani axenic amastigote parasites; test: Assay for Leishmania proliferation in vitro (axenic amastigotes, Cell TiterGlo); format: cell-based; details: 48 h, 2 day incubation, read-out: L. donovani amastigotes EC50
Protocol: Leishmania donovani axenic amastigote parasites are grown at 37° C., 5% CO2 in media made of RPMI 1640, 4 mM L-glutamine, 20% heat inactivated FBS, 100 units/ml of penicillin and 100 μg/ml of streptomycin, 23 μM Folic Acid, 100 μM Adenosine, 22 mM D-glucose, 25 mM MES. The pH of media is adjusted to 5.5 at 37° C. using HCl. 20 μL of media is first dispensed into 384 well plates and […] of the compounds of invention in DMSO are added to the plate wells. At the same time control compounds and DMSO are added to plates to serve as the positive and negative controls, respectively. 40 μL of parasite culture (9600 parasites) are then added to the plate wells. The plates are then placed into incubators. After 2 day incubation, 20 μL of Cell TiterGlo (Promega) is added to the plate wells. The luminescence signal of each well is measured using the Envision reader (Perkin Elmer). The percentage inhibition of 50%, EC50, is calculated for each of the compounds.

SMILES | EC50 [1] [µM] | EC50 [2] [µM]
Cc1cnc(C(=O)Nc2cnc3nc(-c4cc(NC(=O)c5ccco5)ccc4Cl)[nH]c3c2)s1 [Example 1, N-{2-[2-chloro-5-(furan-2-amido)phenyl]-1H-imidazo[4,5-b]pyridin-6-yl}-5-methyl-1,3-thiazole-2-carboxamide] | 0.72 | 0.13
CC(C)OC(=O)Nc1ccc(Cl)c(-c2nc3ncc(NC(=O)OC(C)C)cc3[nH]2)c1 [Example 4, propan-2-yl N-[2-(2-chloro-5-{[(propan-2-yloxy)carbonyl]amino}phenyl)-1H-imidazo[4,5-b]pyridin-6-yl]carbamate] | 0.83 | 0.44
CN(C)c1cnc2nc(-c3cc(NC(=O)c4ccco4)ccc3Cl)[nH]c2c1 [Example 13, N-{4-chloro-3-[6-(dimethylamino)-1H-imidazo[4,5-b]pyridin-2-yl]phenyl}furan-2-carboxamide] | 8.6 | 2.35
Cc1ccc(C(=O)Nc2ccc(Cl)c(-c3nc4ncc(NC(=O)OC(C)C)cc4[nH]3)c2)o1 [Example 17, propan-2-yl N-{2-[2-chloro-5-(5-methylfuran-2-amido)phenyl]-1H-imidazo[4,5-b]pyridin-6-yl}carbamate] | 13.3 | 7.6
CC(C)(N)COC(=O)Nc1cnc2nc(-c3cc(NC(=O)c4ccco4)ccc3Cl)[nH]c2c1 [Example 23, 2-amino-2-methylpropyl N-{2-[2-chloro-5-(furan-2-amido)phenyl]-1H-imidazo[4,5-b]pyridin-6-yl}carbamate] | 34.1 | 21
O=C(Nc1ccc(Cl)c(-c2nc3ncc(NCC4CCNCC4)cc3[nH]2)c1)c1ccco1 [Example 27, N-(4-chloro-3-{6-[(piperidin-4-ylmethyl)amino]-1H-imidazo[4,5-b]pyridin-2-yl}phenyl)furan-2-carboxamide] | > 50 | > 25
CC(C)(C)OC(=O)N1CC[C@H](CC(=O)Nc2cnc3nc(-c4cc(NC(=O)c5ccco5)ccc4Cl)[nH]c3c2)C1 [Example 28] | > 50 | > 25
Cc1ccc(C(=O)Nc2ccc(Cl)c(-c3nc4ncc(N)cc4[nH]3)c2)o1 [Example 29, N-(3-{6-amino-1H-imidazo[4,5-b]pyridin-2-yl}-4-chlorophenyl)-5-methylfuran-2-carboxamide] | > 50 | > 25
CC(C)(N)CNc1cnc2nc(-c3cc(NC(=O)c4ccco4)ccc3Cl)[nH]c2c1 [Example 31, N-(3-{6-[(2-amino-2-methylpropyl)amino]-1H-imidazo[4,5-b]pyridin-2-yl}-4-chlorophenyl)furan-2-carboxamide] | > 50 | > 25
O=C(Nc1ccc(Cl)c(-c2nc3ncc(NC(=O)C4(C(F)(F)F)CCC4)cc3[nH]2)c1)c1ccco1 [Example 37, N-[4-chloro-3-(6-{[1-(trifluoromethyl)cyclobutane]amido}-1H-imidazo[4,5-b]pyridin-2-yl)phenyl]furan-2-carboxamide] | 0.53 | 0.85
CN(C)CC(=O)Nc1cnc2nc(-c3cc(NC(=O)c4ccco4)ccc3Cl)[nH]c2c1 [Example 40, N-(4-chloro-3-{6-[2-(dimethylamino)acetamido]-1H-imidazo[4,5-b]pyridin-2-yl}phenyl)furan-2-carboxamide] | 8.5 | > 25
CN(C)/C=N/c1cnc2nc(-c3cc(NC(=O)c4ccco4)ccc3Cl)[nH]c2c1 [Example 50, N-(4-chloro-3-{6-[(E)-[(dimethylamino)methylidene]amino]-1H-imidazo[4,5-b]pyridin-2-yl}phenyl)furan-2-carboxamide] | 5.1 | 6
CN(C)S(=O)(=O)Nc1cnc2nc(-c3cc(NC(=O)c4ccco4)ccc3Cl)[nH]c2c1 [Example 51, N-(4-chloro-3-{6-[(dimethylsulfamoyl)amino]-1H-imidazo[4,5-b]pyridin-2-yl}phenyl)furan-2-carboxamide] | 8.8 | > 25
CC(C)S(=O)(=O)Nc1cnc2nc(-c3cc(NC(=O)c4ccc(C#N)o4)ccc3Cl)[nH]c2c1 [Example 60, N-{4-chloro-3-[6-(propane-2-sulfonamido)-1H-imidazo[4,5-b]pyridin-2-yl]phenyl}-5-cyanofuran-2-carboxamide] | 17.9 | 2.43
NC(=O)C1(C(=O)Nc2cnc3nc(-c4cc(NC(=O)c5ccco5)ccc4Cl)[nH]c3c2)CC1 [Example 64, 1-N-{2-[2-chloro-5-(furan-2-amido)phenyl]-1H-imidazo[4,5-b]pyridin-6-yl}cyclopropane-1,1-dicarboxamide] | > 50 | 21.1
NCCCNc1cnc2nc(-c3cc(NC(=O)c4ccc(F)o4)ccc3Cl)[nH]c2c1 [Example 69, N-(3-{6-[(3-aminopropyl)amino]-1H-imidazo[4,5-b]pyridin-2-yl}-4-chlorophenyl)-5-fluorofuran-2-carboxamide] | > 50 | > 25
O=CNc1cnc2nc(-c3cc(NC(=O)c4ccc(F)o4)ccc3Cl)[nH]c2c1 [Example 74, N-(4-chloro-3-{6-formamido-1H-imidazo[4,5-b]pyridin-2-yl}phenyl)-5-fluorofuran-2-carboxamide] | > 50 | 10.8
CC(C)OC(=O)Nc1cnc2nc(-c3cc(NC(=O)N4CCCC4)ccc3Cl)oc2c1 [Example 75, propan-2-yl N-(2-{2-chloro-5-[(pyrrolidin-1-yl)carbonylamino]phenyl}-[1,3]oxazolo[4,5-b]pyridin-6-yl)carbamate] | 0.166 | 0.132
CC(C)OC(=O)Nc1cnc2nc(-c3cc(NC(=O)c4ccco4)ccc3Cl)oc2c1 [Example 76, propan-2-yl N-(2-{2-chloro-5-[(furan-2-yl)carbonylamino]phenyl}-[1,3]oxazolo[4,5-b]pyridin-6-yl)carbamate] | 0.45 | 0.26
CC(C)S(=O)(=O)Nc1cnc2nc(-c3cccc(NC(=O)c4ccc(F)o4)c3)[nH]c2c1 [Example 77, 5-fluoro-N-{3-[6-(propane-2-sulfonamido)-1H-imidazo[4,5-b]pyridin-2-yl]phenyl}furan-2-carboxamide] | 22.9 | > 25
